From article PMC6526634, “Preparation of bioactive peptides with antidiabetic, antihypertensive, and antioxidant activities and identification of α‐glucosidase inhibitory peptides from soy protein” (Food Science & Nutrition, 2019) come the findings set out here.

Experiment [1] addresses T1, α‐glucosidase from Saccharomyces cerevisiae (Saccharomyces cerevisiae, UniProt P53341).
T1 construct: purchased Sigma-Aldrich
Put plainly: α‐glucosidase inhibitory activity assay. It counts as biochemical. The method, then: All other chemicals and reagents were of analytical grade and commercially available.
α‐glucosidase inhibitory activity assay was performed according to a method by Kim with slight modifications (Kim, Wang, & Rhee, 2004). The α‐glucosidase inhibitory rate of the hydrolysate was estimated in a 96‐well microplate using a MR‐96A microplate reader (Mindray) by monitoring the amount of 4‐nitrophenol (PNP) released from 4‐nitrophenol‐α‐D‐glucopyranoside (PNPG). A dose (50 μl) of sodium phosphate buffer (pH 6.8, 0.2 M), 50 μL of PNPG (1 mg/ml) dissolved in sodium phosphate buffer, and 50 μl of the samples dissolved in the same buffer were mixed adequately in a 96‐well microplate. Then, it was incubated for 5 min at 37°C, and the reaction started immediately followed by the addition of 10 μl of α‐glucosidase solution (0.2 U/ml of the buffer). The plate was incubated for another 30 min at 37°C, and then, the reaction was terminated by the addition of 80 μl of 1 M Na2CO3 solution. The absorbance of released product PNP was measured immediately at 405 nm. […] The percentage of α‐glucosidase inhibition was calculated as follows:(1) α-glucosidase inhibition rate%=ODA-ODS/ODA-ODB×100 where ODA is the absorbance of the supernatant in which the sample is replaced by the same amount of buffer; ODS is the absorbance of the supernatant with the tested sample; and ODBis the absorbance of the supernatant in which the tested sample and α‐glucosidase solution are replaced by the same amount of buffer.

Experiment [2] is described as follows: Hydroxyl radical scavenging ability. Conditions: Fenton reaction, salicylic acid, 37℃, 30 min, absorbance 510 nm; mean ± SD of three replicates. Here is the method: The antioxidant activity of the soy protein peptides was determined by a hydroxyl radical scavenging assay involving in the Fenton reaction, according to Hanasaki (Hanasaki, Ogava, & Fukui, 1994). The samples were prepared into 0.1, 0.5, 2, 5, and 10 mg/ml. Then, 1 ml of 9 µmol/L FeSO4 solution and 1 ml of salicylic acid–ethanol solution (9 µmol/L，50% ethanol solution) were added respectively and mixed well, with the addition of 1 ml of […] H2O2 (0.03%) reaction initiated. The mixture was incubated in a 37℃ water bath for 30 min and then centrifuged at 2,896 g for 5 min to remove the precipitation. The absorbance of the supernatant was measured at 510 nm. The hydroxyl radical clearance rate was calculated as follows:(4) Hydroxyl radical clearance rate%=1-A1-A2/A0×100 where A 1 is the absorbance of the sample supernatant, A 2 is the absorbance of the supernatant in which the salicylic acid–ethanol is replaced by the same amount of ethanol, and A 0 is the absorbance of the supernatant in which the sample is replaced by distilled water. The ascorbic acid was used as a positive control.

The nature of experiment [3]: Ferric reducing antioxidant power (FRAP) activity. Conditions: 1, 2, 5, 10, and 20 mg/ml, potassium ferricyanide, pH 6.6, 50℃, 30 min, absorbance 700 nm. The method, then: The FRAP assay was used to determine the antioxidative of the samples using the method described by Tsai et al with some modifications (Tsai, Huang, & Mau, 2006) and to configure the sample solution with the concentration of 1, 2, 5, 10, and 20 mg/ml. Using 1 ml of sample mixed with 2.5 ml of 0.2 mol/L sodium phosphate buffer (pH 6.6) and 2.5 ml of 1% potassium ferricyanide solution incubated at 50℃ for 30 min, add 2.5 ml of 10% trichloroacetic acid solution, centrifuged at 1,042 g for 10 min, and then collected 2.5 ml of supernatant mixed with 2.5 ml of distilled water and 0.5 ml of 0.1% ferric chloride solution. The absorbance at 700 nm was measured after 10 min by a 754 PC spectrophotometer (Shanghai, China). FeSO4 aqueous solution was used as positive control.

Where a SMILES comes first, the peptide text is derived from it.

T1 sequence (P53341 whole entry): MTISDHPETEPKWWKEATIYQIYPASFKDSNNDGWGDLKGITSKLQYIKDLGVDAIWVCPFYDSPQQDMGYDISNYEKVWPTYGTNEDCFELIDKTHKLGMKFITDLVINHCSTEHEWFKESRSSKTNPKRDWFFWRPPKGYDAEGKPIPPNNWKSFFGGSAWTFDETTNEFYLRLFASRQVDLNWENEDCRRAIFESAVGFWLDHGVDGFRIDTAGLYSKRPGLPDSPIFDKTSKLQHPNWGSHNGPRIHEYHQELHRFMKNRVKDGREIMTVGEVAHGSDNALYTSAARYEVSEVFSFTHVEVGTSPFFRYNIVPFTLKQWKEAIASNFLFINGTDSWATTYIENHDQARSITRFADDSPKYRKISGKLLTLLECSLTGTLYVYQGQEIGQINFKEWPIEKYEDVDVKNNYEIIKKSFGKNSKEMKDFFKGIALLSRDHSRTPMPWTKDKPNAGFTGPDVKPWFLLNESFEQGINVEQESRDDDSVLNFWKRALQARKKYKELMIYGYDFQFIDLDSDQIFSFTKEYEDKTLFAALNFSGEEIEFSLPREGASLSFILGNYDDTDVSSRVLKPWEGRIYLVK

In the case of `CC(C)C[C@H](NC(=O)[C@@H](NC(=O)[C@@H]1CCCN1C(=O)[C@H](CC(C)C)NC(=O)[C@@H]1CCCN1C(=O)[C@H](CC(C)C)NC(=O)[C@@H](N)CC(C)C)C(C)C)C(=O)N[C@@H](CCCCN)C(=O)O` (H-LLPLPVLK-OH), the IC50 in experiment [1] turned out to be 237.4 ± 0.52 µM.

Molecule `CC(C)C[C@H](NC(=O)[C@H](CCCNC(=N)N)NC(=O)[C@H](CC(C)C)NC(=O)[C@H](Cc1c[nH]c2ccccc12)NC(=O)[C@@H](N)CO)C(=O)O` [SWLRL] (H-SWLRL-OH) gave an IC50 in experiment [1] of 182.1 ± 0.74 µM.

In experiment [1], `CC(C)C[C@H](NC(=O)[C@H](CCCNC(=N)N)NC(=O)[C@H](CC(C)C)NC(=O)[C@@H](N)Cc1c[nH]c2ccccc12)C(=O)O` [WLRL] (H-WLRL-OH) came in with an IC50 of 165.3 ± 0.74 µM.

On to `O=C1O[C@H]([C@@H](O)CO)C(O)=C1O` [vitamin C, ascorbic acid], for which the “hydroxyl radical scavenging ability IC50” value in experiment [2] is 540 ± 40 µg/mL.

As for “MLPVMR [hexapeptide identified from soy protein AP hydrolysate fraction H1‐2, then synthesized]”, the “α‐glucosidase inhibition, result in words” value in experiment [1] (synthetic peptide or DEAE‐52 fraction, test concentration not given) is “did not show inhibitory activity”.

Take ferrous sulfate [FeSO4]: the “iron ion reduction ability (FRAP)” value in experiment [3] is “linearly related to concentration”; in experiment [3] (listed as ferrous sulfate), “stronger reduction ability”.

The IC50 is the midpoint of a concentration-inhibition curve. A high value points to a need for much substance.
